{"source": "patent EP1852441B1", "about": "“Agents that modulate EPH receptor activity” (The Burnham Institute, priority 2002, dated 2004)", "key": {"[1]": {"biological_target": "T1, endogenous EphA4 (Mus musculus, UniProt Q03137)", "T1 construct": "tyrosine phosphorylation of endogenous EphA4; from tissue; host or cells: mouse hippocampal slices", "T1 sequence (Q03137 20-986)": "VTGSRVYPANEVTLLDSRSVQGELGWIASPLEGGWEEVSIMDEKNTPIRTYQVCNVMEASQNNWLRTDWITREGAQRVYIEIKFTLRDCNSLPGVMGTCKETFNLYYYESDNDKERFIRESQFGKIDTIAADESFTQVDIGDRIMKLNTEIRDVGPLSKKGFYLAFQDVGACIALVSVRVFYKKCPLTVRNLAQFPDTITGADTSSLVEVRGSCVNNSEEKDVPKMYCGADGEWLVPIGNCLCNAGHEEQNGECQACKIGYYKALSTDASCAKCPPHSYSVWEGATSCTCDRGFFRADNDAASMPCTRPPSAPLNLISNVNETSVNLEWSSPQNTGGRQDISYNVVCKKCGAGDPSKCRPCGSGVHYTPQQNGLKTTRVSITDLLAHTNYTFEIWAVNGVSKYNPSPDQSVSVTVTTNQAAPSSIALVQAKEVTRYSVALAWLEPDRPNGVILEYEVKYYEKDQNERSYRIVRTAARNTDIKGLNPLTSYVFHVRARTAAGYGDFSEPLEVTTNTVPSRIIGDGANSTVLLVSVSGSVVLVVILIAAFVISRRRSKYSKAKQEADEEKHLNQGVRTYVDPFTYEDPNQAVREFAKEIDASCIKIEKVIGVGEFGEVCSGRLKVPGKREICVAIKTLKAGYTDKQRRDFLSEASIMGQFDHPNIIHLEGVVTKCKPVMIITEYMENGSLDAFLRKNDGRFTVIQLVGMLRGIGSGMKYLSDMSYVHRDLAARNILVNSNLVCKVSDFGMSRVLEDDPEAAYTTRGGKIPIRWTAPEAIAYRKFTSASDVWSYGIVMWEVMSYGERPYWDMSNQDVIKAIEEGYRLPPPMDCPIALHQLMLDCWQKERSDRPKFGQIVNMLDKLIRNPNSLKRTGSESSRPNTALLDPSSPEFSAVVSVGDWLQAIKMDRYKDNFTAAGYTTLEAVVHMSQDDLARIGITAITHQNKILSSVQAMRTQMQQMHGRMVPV", "experiment": "ephrin-A3 Fc induced EphA4 tyrosine phosphorylation in hippocampal slices (immunoblot)", "assay_type": "cell-based", "conditions": "peptide together with ephrin-A3 Fc, micromolar concentrations"}, "[2]": {"tested_on": "neural crest cells", "experiment": "neural crest cell migration assay in trunk explants", "assay_type": "cell-based, Chick", "conditions": "24 hours, 13 µM KYL peptide, 10 µg/ml EphA4-Fc", "procedure": "(§1) In this example to address whether the EphA4-binding peptides can inhibit endogenous ephrin-EphA4 physiological function, a neural crest cell migration assay (McLennan, R. & Krull, C.E. 2002 Gene Expr 10:295-305) was utilized. […] The migration of neural crest cells was determined by staining for HNK-1 for neural crest cells and ephrin-B1 to label the caudal sclerotome. […] Neural crest cells migrated properly into the rostral sclerotome in explants treated with control Fc."}, "[3]": {"tested_on": "neural crest cells", "experiment": "Neural crest cell migration assay in trunk explants", "assay_type": "cell-based", "conditions": "13 µM peptide, 24 hours, chick trunk explants", "procedure": "as §1"}, "[4]": {"tested_on": "EphA2", "experiment": "EphA2 tyrosine phosphorylation and MAP kinase signaling in HUVE cells", "assay_type": "cell-based, human", "conditions": "in the absence of ephrin", "procedure": "Ephin-A1 Fc was cross-linked by preincubation with 0.2 µg/ml anti-human fc antibodies for 30 minutes on ice. After stimulation, the cells were lysed in modified RIPA buffer {Ogawa, K. et al. 2000 Oncogene 19: 6043-6052). Cell lysates were immunoprecipitated with 5 µg anti-EphA2 antibody (Upstate, Lake Placid, NY), separated by SDS polyacrylamide gel electrophoresis and probed by immunobloting with peroxidase-conjugated anti-phosphotyrosine antibody (Transduction Laboratories, San Diego, CA) or anti-EphA2 antibody followed by a secondary anti-mouse IgG peroxidase-conjugated antibody (Amersham).\n(§2) Cell lysates were used to immunoprecipitate EphA2 as described above or probed by immunoblotting with anti-phospho-p44/p42 MAPK antibody (Cell Signaling Technology, Beverly, MA) followed by an anti-mouse IgG peroxidase-conjugated antibody (Amersham) and re-probed with an anti-ERK2 antibody (Santa Cruz Biotechnology, Santa Cruz, CA) followed by a secondary anti-rabbit IgG peroxidase-conjugated antibody (Amersham). Erk2 (p42 MAP kinase) is the major phosphorylated form present. EphA2 was immunoprecipitated (IP) and probed by immunoblotting with anti-ghosphotyrosine (PTyr) or anti-EphA2 antibodies."}, "[5]": {"tested_on": "MAP kinase", "experiment": "MAP kinase phosphorylation in HUVE cells (immunoblot)", "assay_type": "cell-based, human", "conditions": "non-serum starved HUVE cells", "source_text": "as §2"}}}
{"molecule": "KYLPYWPVLSSL", "values": [{"measurement": "ephrin-A3-induced tyrosine phosphorylation of endogenous EphA4", "setting": "[1]", "value": "antagonize"}, {"measurement": "ephrin-A3-induced tyrosine phosphorylation of endogenous EphA4", "setting": "[1]; listed as KYL peptide", "value": "lower concentrations than the APY and VTM peptides"}, {"measurement": "migration of neural crest cells", "setting": "[2]", "value": "ectopic migration of neural crest cells into the caudal half-selerotome"}]}
{"molecule": "KYLPYWPVLSSL [KYL peptide]", "values": [{"measurement": "migration of neural crest cells", "setting": "[3]", "value": "ectopic migration of neural crest cells into the caudal half-selerotome"}]}
{"molecule": "CSCC[C@H](NC(=O)[C@H](CCSC)NC(=O)[C@@H]1CCCN1C(=O)[C@@H](NC(=O)[C@H](CO)NC(=O)[C@H](CC(=O)O)NC(=O)[C@@H]1CCCN1C(=O)[C@H](Cc1ccc(O)cc1)NC(=O)[C@H](C)NC(=O)[C@H](CO)NC(=O)[C@@H](N)Cc1ccc(O)cc1)C(C)C)C(=O)N[C@@H](CO)C(=O)O", "note": "[YSA peptide]", "values": [{"measurement": "functional effect on EphA2 (tyrosine phosphorylation, suppression of MAP kinase)", "setting": "[4]", "value": "agonist for EphA2"}]}
{"molecule": "CSCC[C@H](NC(=O)[C@H](CCSC)NC(=O)[C@@H]1CCCN1C(=O)[C@@H](NC(=O)[C@H](CO)NC(=O)[C@H](CC(=O)O)NC(=O)[C@@H]1CCCN1C(=O)[C@H](Cc1ccc(O)cc1)NC(=O)[C@H](C)NC(=O)[C@H](CO)NC(=O)[C@@H](N)Cc1ccc(O)cc1)C(C)C)C(=O)N[C@@H](CO)C(=O)NCC(=O)N[C@@H](CO)C(=O)NCC(=O)N[C@@H](CO)C(=O)N[C@@H](CCCCNC(=O)CCCC[C@@H]1SC[C@@H]2NC(=O)N[C@@H]21)C(=O)O", "note": "[YSA peptide]", "values": [{"measurement": "MAP kinase activation", "setting": "[5]", "value": "suppresses MAP kinase activation"}]}
{"molecule": "VTMEAINLAFPG", "values": [{"measurement": "ephrin-A3-induced tyrosine phosphorylation of endogenous EphA4", "setting": "[1]", "value": "antagonize"}]}
